According to ChEMBL document CHEMBL1201862, “PubChem BioAssay data set” (2004):
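How tested: cells in 96-well plates exposed to compound for 48 hours at five concentrations. GI50 is the concentration that inhibits growth by half.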 Activity calls are given as the source filed them. Cut-off read from the data, not from the text of the source: active = GI50 up to about 1.1 µM and inactive = higher.

How the values were obtained:
Test in all cases: NCI tumour cell line growth inhibition, 48 h
EKVX = system: EKVX
NCI-H460 = system: NCI-H460
TK-10 = system: TK-10
M14 = system: M14
Hs-578T = system: Hs-578T
PC-3 = system: PC-3
A549 = system: A549
SF-268 = system: SF-268
SNB-19 = system: SNB-19
SN12C = system: SN12C
ACHN = system: ACHN
HT-29 = system: HT-29
SK-MEL-28 = system: SK-MEL-28
SW-620 = system: SW-620
HCT-15 = system: HCT-15
NCI/ADR-RES = system: NCI/ADR-RES
BT-549 = system: BT-549
HCT-116 = system: HCT-116
NCI-H226 = system: NCI-H226
K562 = system: K562
MCF7 = system: MCF7
OVCAR-8 = system: OVCAR-8
RXF 393 = system: RXF 393
Malme-3M = system: Malme-3M
HL-60 = system: HL-60
U-251 = system: U-251
UACC-62 = system: UACC-62
NCI-H23 = system: NCI-H23
UACC-257 = system: UACC-257
HOP-62 = system: HOP-62
LOX IMVI = system: LOX IMVI
SNB-75 = system: SNB-75
SK-MEL-5 = system: SK-MEL-5
IGROV-1 = system: IGROV-1
KM12 = system: KM12
T47D = system: T47D
COLO 205 = system: COLO 205
CCRF-CEM = system: CCRF-CEM
OVCAR-5 = system: OVCAR-5
SF-295 = system: SF-295
HOP-92 = system: HOP-92
OVCAR-3 = system: OVCAR-3
SK-MEL-2 = system: SK-MEL-2
A498 = system: A498
786-0 = system: 786-0
CAKI-1 = system: CAKI-1
MDA-MB-231 = system: MDA-MB-231
SR = system: SR
MOLT-4 = system: MOLT-4
SK-OV-3 = system: SK-OV-3
HCC 2998 = system: HCC 2998
DU-145 = system: DU-145
NCI-H522 = system: NCI-H522
UO-31 = system: UO-31
MDA-MB-435 = system: MDA-MB-435
OVCAR-4 = system: OVCAR-4
MDA-N = system: MDA-N
SF-539 = system: SF-539
RPMI-8226 = system: RPMI-8226

c1nc2nc[nH]c(SSc3[nH]cnc4ncnc3-4)c-2n1
GI50 (EKVX): 88.3 µM (inactive) | GI50 (NCI-H460): 2.65 µM (inactive) | GI50 (TK-10): < 0.0343 µM (active) | GI50 (M14): 1.21 µM (inactive) | GI50 (Hs-578T): 5.89 µM (inactive) | GI50 (PC-3): 1.23 µM (inactive) | GI50 (A549): 13.9 µM (inactive) | GI50 (SF-268): 0.897 µM (active) | GI50 (SNB-19): 47.4 µM (inactive) | GI50 (SN12C): 12.8 µM (inactive) | GI50 (ACHN): 3.21 µM (inactive) | GI50 (HT-29): 1.19 µM (inactive) | GI50 (SK-MEL-28): 61.8 µM (inactive) | GI50 (SW-620): 0.824 µM (active) | GI50 (HCT-15): 925 nM | GI50 (NCI/ADR-RES): 0.217 µM (active) | GI50 (BT-549): 14.1 µM (inactive) | GI50 (HCT-116): 0.41 µM (active) | GI50 (NCI-H226): 0.476 µM (active) | GI50 (K562): < 0.0472 µM (active) | GI50 (MCF7): 0.136 µM (active) | GI50 (OVCAR-8): 0.455 µM (active) | GI50 (RXF 393): > 100 µM (inactive) | GI50 (Malme-3M): 0.376 µM (active) | GI50 (HL-60): 2.14 µM (inactive) | GI50 (U-251): 5.68 µM (inactive) | GI50 (UACC-62): < 0.01 µM (active) | GI50 (NCI-H23): 0.292 µM (active) | GI50 (UACC-257): 2.63 µM (inactive) | GI50 (HOP-62): 0.116 µM (active) | GI50 (LOX IMVI): < 0.0441 µM (active) | GI50 (SNB-75): 0.463 µM (active) | GI50 (SK-MEL-5): 4.83 µM (inactive) | GI50 (IGROV-1): > 22.3 µM (inactive) | GI50 (KM12): 1.06 µM (active) | GI50 (T47D): 2.64 µM (inactive) | GI50 (COLO 205): 0.653 µM (active) | GI50 (CCRF-CEM): 0.202 µM (active) | GI50 (OVCAR-5): 4.4 µM (inactive) | GI50 (SF-295): 127 nM (active) | GI50 (HOP-92): < 0.01 µM (active) | GI50 (OVCAR-3): < 0.0442 µM (active) | GI50 (SK-MEL-2): 8.22 µM (inactive) | GI50 (A498): 14.4 µM (inactive)

Cc1cn(C2CC(N)C(C(=O)O)O2)c(=O)[nH]c1=O (configuration not stated)
GI50 (786-0): > 100 µM (inactive) | GI50 (CAKI-1): > 100 µM (inactive) | GI50 (EKVX): > 100 µM (inactive) | GI50 (MDA-MB-231): > 100 µM (inactive) | GI50 (NCI-H460): > 100 µM (inactive) | GI50 (TK-10): > 100 µM (inactive) | GI50 (M14): > 100 µM (inactive) | GI50 (Hs-578T): > 100 µM (inactive) | GI50 (SR): > 100 µM (inactive) | GI50 (MOLT-4): > 100 µM (inactive) | GI50 (PC-3): > 100 µM (inactive) | GI50 (A549): > 100 µM (inactive) | GI50 (SF-268): > 100 µM (inactive) | GI50 (SNB-19): > 100 µM (inactive) | GI50 (SK-OV-3): > 100 µM (inactive) | GI50 (HCC 2998): > 100 µM (inactive) | GI50 (SN12C): > 100 µM (inactive) | GI50 (ACHN): > 100 µM (inactive) | GI50 (HT-29): > 100 µM (inactive) | GI50 (SW-620): > 100 µM (inactive) | GI50 (HCT-15): > 100000 nM | GI50 (DU-145): > 100 µM (inactive) | GI50 (NCI-H522): > 100 µM (inactive) | GI50 (NCI/ADR-RES): > 100 µM (inactive) | GI50 (BT-549): > 100 µM (inactive) | GI50 (HCT-116): > 100 µM (inactive) | GI50 (NCI-H226): > 100 µM (inactive) | GI50 (K562): > 100 µM (inactive) | GI50 (MCF7): > 100 µM (inactive) | GI50 (OVCAR-8): > 100 µM (inactive) | GI50 (UO-31): > 100 µM (inactive) | GI50 (Malme-3M): > 100 µM (inactive) | GI50 (MDA-MB-435): > 100 µM (inactive) | GI50 (HL-60): > 100 µM (inactive) | GI50 (U-251): > 100 µM (inactive) | GI50 (UACC-62): > 100 µM (inactive) | GI50 (NCI-H23): > 100 µM (inactive) | GI50 (OVCAR-4): > 100 µM (inactive) | GI50 (UACC-257): > 100 µM (inactive) | GI50 (HOP-62): > 100 µM (inactive) | GI50 (MDA-N): > 100 µM (inactive) | GI50 (SNB-75): > 100 µM (inactive) | GI50 (SK-MEL-5): > 100 µM (inactive) | GI50 (IGROV-1): > 100 µM (inactive) | GI50 (KM12): > 100 µM (inactive) | GI50 (COLO 205): > 100 µM (inactive) | GI50 (CCRF-CEM): > 100 µM (inactive) | GI50 (OVCAR-5): > 100 µM (inactive) | GI50 (SF-539): > 100 µM (inactive) | GI50 (HOP-92): > 100 µM (inactive) | GI50 (OVCAR-3): > 100 µM (inactive) | GI50 (SK-MEL-2): > 100 µM (inactive) | GI50 (RPMI-8226): > 100 µM (inactive) | GI50 (A498): > 100 µM (inactive)

O=C(Nc1ccc(C(F)(F)F)cc1[N+](=O)[O-])c1cccnc1
GI50 (786-0): 10.7 µM (inactive) | GI50 (CAKI-1): 2.81 µM (inactive) | GI50 (EKVX): 4.61 µM (inactive) | GI50 (MDA-MB-231): 17.4 µM (inactive) | GI50 (NCI-H460): 3.15 µM (inactive) | GI50 (TK-10): 5.46 µM (inactive) | GI50 (M14): 5.09 µM (inactive) | GI50 (Hs-578T): 6.53 µM (inactive) | GI50 (SR): 1.01 µM (active) | GI50 (MOLT-4): 9.1 µM (inactive) | GI50 (A549): 6.75 µM (inactive) | GI50 (SF-268): 4.07 µM (inactive) | GI50 (SNB-19): 9.48 µM (inactive) | GI50 (SK-OV-3): 6.35 µM (inactive) | GI50 (HCC 2998): > 100 µM (inactive) | GI50 (SN12C): 7.83 µM (inactive) | GI50 (ACHN): 7.01 µM (inactive) | GI50 (HT-29): 2.04 µM (inactive) | GI50 (SK-MEL-28): 0.386 µM (active) | GI50 (SW-620): 3.14 µM (inactive) | GI50 (HCT-15): 2910 nM | GI50 (DU-145): 7.08 µM (inactive) | GI50 (NCI-H522): 3.94 µM (inactive) | GI50 (NCI/ADR-RES): 6.9 µM (inactive) | GI50 (BT-549): 7.06 µM (inactive) | GI50 (HCT-116): 7.24 µM (inactive) | GI50 (NCI-H226): 22.8 µM (inactive) | GI50 (K562): 2.45 µM (inactive) | GI50 (MCF7): 2.22 µM (inactive) | GI50 (UO-31): 8.85 µM (inactive) | GI50 (Malme-3M): 2.15 µM (inactive) | GI50 (MDA-MB-435): 0.537 µM (active) | GI50 (HL-60): 3.72 µM (inactive) | GI50 (U-251): 5 µM (inactive) | GI50 (UACC-62): 3.76 µM (inactive) | GI50 (NCI-H23): 33.2 µM (inactive) | GI50 (OVCAR-4): 4.43 µM (inactive) | GI50 (UACC-257): 5.71 µM (inactive) | GI50 (HOP-62): 54.5 µM (inactive) | GI50 (LOX IMVI): 7.31 µM (inactive) | GI50 (SNB-75): 3.72 µM (inactive) | GI50 (SK-MEL-5): 4.06 µM (inactive) | GI50 (IGROV-1): 6.44 µM (inactive) | GI50 (KM12): 2.57 µM (inactive) | GI50 (T47D): > 100 µM (inactive) | GI50 (COLO 205): 4.84 µM (inactive) | GI50 (CCRF-CEM): 4.85 µM (inactive) | GI50 (OVCAR-5): 73.5 µM (inactive) | GI50 (SF-295): 4420 nM (inactive) | GI50 (SF-539): 3.37 µM (inactive) | GI50 (OVCAR-3): 2.41 µM (inactive) | GI50 (SK-MEL-2): 4.21 µM (inactive) | GI50 (RPMI-8226): 5.08 µM (inactive) | GI50 (A498): 18.3 µM (inactive)
